# Several values for one entry are separate records, joined by “and”; a condition that tells them apart may be missing. Equal values may be shown once.
# What was measured:
# [1] = 14-day repeated dose toxicokinetic study, topical application to eyelid margin; design: species or system Beagle dogs; conditions: dog, in vivo; for Cmax / Tmax / AUC(0-t) / AUC0-24 h: Beagle, topical or ocular; for AUC(0-t): AUC0-24 h
# Text: The purpose of this study was to evaluate the toxicokinetic of fluticasone propionate Form A nanosuspensions of the invention (see Table 10 below) administered via topical application directly to the rim (margin) of upper and lower eyelids of both eyes of Beagle dogs.
# Fifty naïve Beagle dogs (25 males and 25 females), approximately 5-6 months old and weighing 5.7 to 8.8 kg for males and females at the outset of the study were assigned to treatment groups (groups 1-4) and to vehicle group.
# Male and female Beagle dogs were dosed with fluticasone propionate at 1.6, 9.6, and 32 μg/day (bilateral QD topical application) or at 64 μg/day (bilateral BID topical application) via eye lid applicator directly to the upper and lower eyelids of both eyes once or twice daily (minimum of 6 hours between doses) for 14 consecutive days.
# Blood for toxicokinetic evaluation was collected from all animals at selected time points on Days 1 and 14.
# Ophthalmology examinations were performed prior to treatment initiation, during the first and second weeks of dosing and during the last week of recovery. Eyes were scored once daily according to the modified Draize scale.
# The reversibility of the effects of Fluticasone Propionate nanosuspension was assessed with a 14-day recovery period.
# [2] = In vitro dissolution test (compartment diffusion through dialysis membrane, sink condition); type: physicochemical
# Procedure: The dissolution rate of the Fluticasone propionate form A nanocrystals of the nanosuspension of the invention was assessed and compared to the dissolution rate of a standard Fluticasone propionate form 1 micronized material (reference sample). Dissolution profiles of nanocrystals of Fluticasone propionate form A of two nanosuspensions of the invention and of Fluticasone propionate form 1 micronized were performed using a dissolution method. The study was performed using a compartment diffusion analysis through a dialysis membrane and sink condition. The sink condition was achieved through the use of a receptor fluid containing 30 mM phosphate buffer, pH 7.4 with 5% HPβCD cyclodextrins and also by a complete replacement of the buffer every 24 hours to stay below the saturation point. The saturation point was estimated to be 5 μg/g under those experimental conditions and the measurements performed as well as the buffer replacement have shown a maximum concentration of 1.5 μg/g. The study was conducted at a temperature of 37° C. The details of the dissolution test method are provided below: A 5-fold dilution with the formulation vehicle (placebo solution containing all the formulation excipients including the surfactants) of two 0.1% w/w Fluticasone propionate form A nanosuspensions was conducted to obtain a final concentration of 0.02% w/w Fluticasone propionate inside the dialysis device. Fluticasone propionate form 1 micronized was suspended in the same phosphate buffer used in the receiving compartment of the dialysis system. Fluticasone propionate release was carried at 1-2 RPM. […] These aliquots were immediately centrifuged and the measurements were performed by HPLC
# [3] = Particle size distribution by laser diffraction (Horiba LA-950) during preparation; type: physicochemical; conditions: for particle size (D50—median): materials used in the dissolution test
# Procedure: The particle size of the isolated nanocrystals was evaluated using a laser scattering Particle size distribution analyzer (Horiba LA-950).
# 4000 g of vehicle 1 were introduced into a 10 L process vessel containing a stir bar, by filtration through a PES 0.2 μm media and were set aside for further use. In a 2 L beaker, 15.04 g of the fluticasone propionate Form A nanocrystals were introduced together with some vehicle 1. […] This concentrated slurry was subject to high-shear, high-speed mixing at 6000±10 RPM for 10 minutes and the particle size distribution was tested by laser diffraction on a Horiba LA-950S2 PSD analyzer.
# The 1% w/w fluticasone propionate Form A nanocrystals slurry was subject to high-shear, high-speed mixing at 6000±10 RPM for 10 minutes and the particle size distribution was tested by laser diffraction using a Horiba LA-95052 PSD analyzer.
# The particle size distribution was tested by laser diffraction using a Horiba LA-950S2 PSD analyzer.
# [4] = particle size at preparation, Horiba LA-950
# [5] = time point 3 h, 37° C., listed as Fluticasone propionate form A nanocrystals
# [6] = time point 5 h, 37° C., listed as Fluticasone propionate form A nanocrystals
# [7] = time point 19 h, 37° C., listed as Fluticasone propionate form A nanocrystals
# [8] = time point 24 h, 37° C., listed as Fluticasone propionate form A nanocrystals
# [9] = time point 48 h, 37° C., listed as Fluticasone propionate form A nanocrystals
# [10] = time point 72 h, 37° C., listed as Fluticasone propionate form A nanocrystals
smiles,measurement,setting,value
"CCC(=O)O[C@]1(C(=O)SCF)[C@H](C)C[C@H]2[C@@H]3C[C@H](F)C4=CC(=O)C=C[C@]4(C)[C@@]3(F)[C@@H](O)C[C@@]21C [Fluticasone Propionate, fluticasone propionate]",Cmax,"[1]; both sexes, 1.6 ug/day, Cmax",0.0281 ± 0.0266 ng/mL
same,Tmax,"[1]; both sexes, 1.6 ug/day, Tmax",45 min
same,AUC(0-t),"[1]; both sexes, 9.6 ug/day",0.191 ± 0.335 ng·h/mL
same,Cmax,"[1]; both sexes, 9.6 ug/day, Cmax",0.0608 ± 0.0487 ng/mL
same,Tmax,"[1]; both sexes, 9.6 ug/day, Tmax",30 min
same,AUC(0-t),"[1]; both sexes, 32 ug/day",0.481 ± 0.361 ng·h/mL
same,Cmax,"[1]; both sexes, 32 ug/day, Cmax",0.13 ± 0.155 ng/mL
same,Tmax,"[1]; both sexes, 32 ug/day, Tmax",30 min
same,AUC(0-t),"[1]; both sexes, 64 ug/day",0.914 ± 0.413 ng·h/mL
same,Cmax,"[1]; both, 1.6 ug/day",0.0324 ± 0.0264 ng/mL
same,Tmax,"[1]; both, 1.6 ug/day",30 min
same,AUC0-24 h,"[1]; both, 9.6 ug/day",0.101 ± 0.102 ng·h/mL
same,Cmax,"[1]; both, 9.6 ug/day",0.0798 ± 0.07 ng/mL
same,Tmax,"[1]; both, 9.6 ug/day",30 min
same,AUC0-24 h,"[1]; both, 32 ug/day",0.482 ± 0.407 ng·h/mL
same,Cmax,"[1]; both, 32 ug/day",0.25 ± 0.219 ng/mL
same,Tmax,"[1]; both, 32 ug/day",30 min
same,AUC0-24 h,"[1]; both, 64 ug/day",0.76 ± 0.188 ng·h/mL
same,exposure versus dose,[1],dose-dependent
same,gender-related differences in exposure,[1],no discernable gender-related differences in exposure
same,saturation point,"[2]; receptor fluid: 30 mM phosphate buffer, pH 7.4 with 5% HPβCD, 37° C.",~5 µg/g
CCC(=O)O[C@]1(C(=O)SCF)[C@H](C)C[C@H]2[C@@H]3C[C@H](F)C4=CC(=O)C=C[C@]4(C)[C@@]3(F)[C@@H](O)C[C@@]21C [fluticasone propionate],particle size (D50—median),[3],0.434 μm
same,D50,[3]; [4],0.2153 μm
same,D90,[3]; [4],0.6073 μm
same,dissolution profile compared with Fluticasone propionate form 1 micronized material,[2]; despite different particle size,similar
same,% Dissolution Average %,"[2]; time point 1 h, 37° C.",0.0%
same,% Dissolution Tube #1,"[2]; time point 1 h, 37° C.",0.0%
same,% Dissolution Tube #2,"[2]; time point 1 h, 37° C.",0.0%
same,% Dissolution Tube #3,"[2]; time point 1 h, 37° C.",0.0%
same,% Dissolution Average %,[2]; [5],0.8% and 0.7%
same,% Dissolution Tube #1,[2]; [5],0.2% and 0.6%
same,% Dissolution Tube #2,[2]; [5],1.4% and 0.5%
same,% Dissolution Tube #3,[2]; [5],0.7% and 0.8%
same,% Dissolution Average %,[2]; [6],2.2% and 2.3%
same,% Dissolution Tube #1,[2]; [6],1.3% and 2.4%
same,% Dissolution Tube #2,[2]; [6],2.8% and 2.0%
same,% Dissolution Tube #3,[2]; [6],2.4% and 2.6%
same,% Dissolution Average %,[2]; [7],17.8% and 19.0%
same,% Dissolution Tube #1,[2]; [7],14.5% and 19.0%
same,% Dissolution Tube #2,[2]; [7],20.4% and 18.2%
same,% Dissolution Tube #3,[2]; [7],18.7% and 19.7%
same,% Dissolution Average %,[2]; [8],21.3% and 22.4%
same,% Dissolution Tube #1,[2]; [8],17.5% and 22.4%
same,% Dissolution Tube #2,[2]; [8],24.0% and 21.5%
same,% Dissolution Tube #3,[2]; [8],22.4% and 23.2%
same,% Dissolution Average %,[2]; [9],46.2% and 48.5%
same,% Dissolution Tube #1,[2]; [9],38.7% and 49.1%
same,% Dissolution Tube #2,[2]; [9],51.4% and 45.6%
same,% Dissolution Tube #3,[2]; [9],48.6% and 50.9%
same,% Dissolution Average %,[2]; [10],70.5% and 73.9%
same,% Dissolution Tube #1,[2]; [10],59.6% and 75.1%
same,% Dissolution Tube #2,[2]; [10],78.1% and 69.1%
same,% Dissolution Tube #3,[2]; [10],74.0% and 77.7%
"CCC(=O)O[C@]1(C(=O)SCF)[C@H](C)C[C@H]2[C@@H]3C[C@H](F)C4=CC(=O)C=C[C@]4(C)[C@@]3(F)[C@@H](O)C[C@@]21C [Micronized Fluticasone propionate form 1, fluticasone propionate]",particle size (D50—median),[3]; listed as Fluticasone propionate form 1 micronized material,4.64 μm
same,particle size (D50—median),[3]; listed as micronized Fluticasone propionate form 1,4.64 μm
same,% Dissolution Average %,"[2]; time point 3 h, 37° C.",0.7%
same,% Dissolution Tube #1,"[2]; time point 3 h, 37° C.",0.8%
same,% Dissolution Tube #2,"[2]; time point 3 h, 37° C.",0.5%
same,% Dissolution Tube #3,"[2]; time point 3 h, 37° C.",0.9%
same,% Dissolution Average %,"[2]; time point 5 h, 37° C.",2.6%
same,% Dissolution Tube #1,"[2]; time point 5 h, 37° C.",2.9%
same,% Dissolution Tube #2,"[2]; time point 5 h, 37° C.",1.9%
same,% Dissolution Tube #3,"[2]; time point 5 h, 37° C.",3.0%
same,% Dissolution Average %,"[2]; time point 19 h, 37° C.",19.4%
same,% Dissolution Tube #1,"[2]; time point 19 h, 37° C.",20.9%
same,% Dissolution Tube #2,"[2]; time point 19 h, 37° C.",17.1%
same,% Dissolution Tube #3,"[2]; time point 19 h, 37° C.",20.3%
same,% Dissolution Average %,"[2]; time point 24 h, 37° C.",22.6%
same,% Dissolution Tube #1,"[2]; time point 24 h, 37° C.",24.2%
same,% Dissolution Tube #2,"[2]; time point 24 h, 37° C.",20.2%
same,% Dissolution Tube #3,"[2]; time point 24 h, 37° C.",23.5%
same,% Dissolution Average %,"[2]; time point 48 h, 37° C.",48.6%
same,% Dissolution Tube #1,"[2]; time point 48 h, 37° C.",51.1%
same,% Dissolution Tube #2,"[2]; time point 48 h, 37° C.",44.0%
same,% Dissolution Tube #3,"[2]; time point 48 h, 37° C.",50.6%
same,% Dissolution Average %,"[2]; time point 72 h, 37° C.",73.4%
same,% Dissolution Tube #1,"[2]; time point 72 h, 37° C.",77.4%
same,% Dissolution Tube #2,"[2]; time point 72 h, 37° C.",66.7%
same,% Dissolution Tube #3,"[2]; time point 72 h, 37° C.",76.2%
